Results as given in ChEMBL document CHEMBL4814051, “Discovery of effective phosphodiesterase 2 inhibitors with antioxidant activities for the treatment of Alzheimer's disease” (Bioorg Med Chem Lett, 2021).

Columns and labels:
[1] = Antioxidant activity assessed as trolox equivalent of AAPH-induced radical scavenging activity preincubated for 15 mins followed by AAPH addition and measured every minute for 80 mins by ORAC-FL assay; assay type: functional; settings: time 95.0 min
[2] = Cytotoxicity against human SH-SY5Y cells assessed as cell viability at 50 uM incubated for 48 hrs by CCK-8 method; assay type: cell-based; settings: read-out: Activity
[3] = Cytotoxicity against human SH-SY5Y cells assessed as cell viability at 100 uM incubated for 48 hrs by CCK-8 method; assay type: cell-based; settings: read-out: Activity

Row | SMILES | Activity (Trolox equivalents) [1] | viability at 48 h, 50 µM [2] [%] | viability at 48 h, 100 µM [3] [%]
1 | Cc1nc2ccc(NCc3c(O)cccc3F)cc2n2c(-c3ccccc3Cl)nnc12 | 8.6 | 23 | 10
2 | Cc1nc2ccc(NCc3cc(Cl)ccc3O)cc2n2c(-c3ccccc3Cl)nnc12 | 3.9 |  | 
3 | Cc1nc2ccc(NCc3cc(OC(F)(F)F)ccc3O)cc2n2c(-c3ccccc3Cl)nnc12 | 5.2 |  | 
4 | COc1ccc(O)c(CNc2ccc3nc(C)c4nnc(-c5ccccc5Cl)n4c3c2)c1 | 8 |  | 
5 | Cc1nc2ccc(/N=C/c3ccc(F)cc3O)cc2n2c(-c3ccccc3Cl)nnc12 | 0.2 |  | 
6 | Cc1nc2ccc(NCc3cc(Cl)cc(Cl)c3O)cc2n2c(-c3ccccc3Cl)nnc12 | 6.8 |  | 
7 | Cc1nc2ccc(NCc3ccc(F)cc3O)cc2n2c(-c3ccccc3Cl)nnc12 | 8.4 | 53 | 39
8 | Cc1nc2ccc(NCc3ccc(F)cc3)cc2n2c(-c3ccccc3Cl)nnc12 | 0.2 |  | 
9 | Cc1nc2ccc(NCc3cc(Br)ccc3O)cc2n2c(-c3ccccc3Cl)nnc12 | 2.6 |  | 
10 | COc1ccc2[nH]cc(CCNC(C)=O)c2c1 | 2 |  | 
11 | Cc1nc2ccc(NCc3ccccc3O)cc2n2c(-c3ccccc3Cl)nnc12 | 3.7 |  | 
12 | Cc1nc2ccc(NCc3ccc(Cl)cc3O)cc2n2c(-c3ccccc3Cl)nnc12 | 6.9 |  | 
13 | Cc1nc2ccc(NCc3ccccc3F)cc2n2c(-c3ccccc3Cl)nnc12 | 0.6 |  | 
14 | Cc1nc2ccc(/N=C/c3ccccc3O)cc2n2c(-c3ccccc3Cl)nnc12 | 0.3 |  | 
15 | Cc1nc2ccc(NCc3ccc(Cl)cn3)cc2n2c(-c3ccccc3Cl)nnc12 | 1.9 |  | 
16 | Cc1nc2ccc(NCc3cc(F)ccc3O)cc2n2c(-c3ccccc3Cl)nnc12 | 8.1 |  | 
17 | Cc1nc2ccc(NCc3ccccn3)cc2n2c(-c3ccccc3Cl)nnc12 | 5.5 |  | 
